Test results from the NIST ThermoML archive (doi:10.1016/j.tca.2011.10.009).
Numbers after ± are expanded uncertainties.

Experiments:
[1] = Liquid; for mass density: Vibrating tube method
[2] = mn = molality of the nth substance listed, in mol/kg; settings: 101 kPa, Liquid; for viscosity: Capillary tube (Ostwald / Ubbelohde) method; for mass density: Vibrating tube method
[3] = refractive index (Na D-line) (dimensionless); mn = molality of the nth substance listed, in mol/kg; settings: 298.15 K, 101 kPa, Liquid, Standard Abbe refractometry

CN(C)C=O [dimethylformamide]
Settings | viscosity [mPa·s]
[1], 298.15 K, 101 kPa, Capillary tube (Ostwald / Ubbelohde) method | 0.861 ± 0.014

[1], 101 kPa
Settings | mass density [kg/m3]
298.15 K | 944.09 ± 0.82
303.15 K | 940.82 ± 0.82
308.15 K | 935.79 ± 0.81
313.15 K | 930.63 ± 0.81

C(=NCCN=Cc1ccccn1)c1ccccn1 [N,N'-bis(2-pyridinylmethylene)-1,2-ethanediamine] + CN(C)C=O
[2]
Settings | mass density, 298.15 K [kg/m3] | mass density, 303.15 K [kg/m3] | mass density, 308.15 K [kg/m3] | mass density, 313.15 K [kg/m3] | viscosity, 298.15 K [mPa·s]
m1 = 0.0402 | 945.46 ± 0.82 | 941.5 ± 0.82 | 936.79 ± 0.81 | 931.89 ± 0.81 | 0.878 ± 0.015
m1 = 0.0764 | 946.76 ± 0.83 | 942.72 ± 0.82 | 937.92 ± 0.81 | 933.39 ± 0.81 | 0.893 ± 0.015
m1 = 0.1208 | 948.07 ± 0.83 | 943.95 ± 0.82 | 939.19 ± 0.82 | 934.92 ± 0.81 | 0.909 ± 0.015
m1 = 0.1644 | 949.29 ± 0.83 | 944.72 ± 0.82 | 940.14 ± 0.82 | 936.16 ± 0.81 | 0.926 ± 0.015

CCCCCCn1cc[n+](C)c1.[Br-] [3-hexyl-1-methyl-1H-imidazolium bromide] + CN(C)C=O
[3]
Settings | refractive index
m1 = 0.0233 | 1.4303 ± 0.0005
m1 = 0.0435 | 1.4306 ± 0.0005
m1 = 0.0658 | 1.4311 ± 0.0005
m1 = 0.0824 | 1.4316 ± 0.0005
m1 = 0.1049 | 1.432 ± 0.0005
m1 = 0.1228 | 1.4325 ± 0.0005
m1 = 0.1428 | 1.433 ± 0.0005
m1 = 0.1583 | 1.4336 ± 0.0005
m1 = 0.1869 | 1.4344 ± 0.0005
m1 = 0.2051 | 1.4347 ± 0.0005

[2]
Settings | mass density, 298.15 K [kg/m3] | mass density, 303.15 K [kg/m3] | mass density, 308.15 K [kg/m3] | mass density, 313.15 K [kg/m3] | viscosity, 298.15 K [mPa·s]
m1 = 2.17e-05 | – | – | – | – | 0.897 ± 0.015
m1 = 4.17e-05 | – | – | – | – | 0.913 ± 0.015
m1 = 6.26e-05 | – | – | – | – | 0.929 ± 0.015
m1 = 7.78e-05 | – | – | – | – | 0.938 ± 0.015
m1 = 9.98e-05 | – | – | – | – | 0.952 ± 0.015
m1 = 0.0001171 | – | – | – | – | 0.969 ± 0.015
m1 = 0.0001363 | – | – | – | – | 0.985 ± 0.016
m1 = 0.0001507 | – | – | – | – | 0.997 ± 0.016
m1 = 0.0001787 | – | – | – | – | 1.014 ± 0.016
m1 = 0.0001961 | – | – | – | – | 1.022 ± 0.016
m1 = 0.0233 | 945.6 ± 0.82 | 942.35 ± 0.82 | 937.3 ± 0.81 | 932.21 ± 0.81 | –
m1 = 0.0435 | 946.89 ± 0.83 | 943.65 ± 0.82 | 938.59 ± 0.82 | 933.56 ± 0.81 | –
m1 = 0.0658 | 948.29 ± 0.83 | 945.07 ± 0.82 | 939.99 ± 0.82 | 935.02 ± 0.81 | –
m1 = 0.0824 | 949.31 ± 0.83 | 946.1 ± 0.82 | 941.01 ± 0.82 | 936.08 ± 0.81 | –
m1 = 0.1049 | 950.67 ± 0.83 | 947.48 ± 0.83 | 942.38 ± 0.82 | 937.52 ± 0.81 | –
m1 = 0.1228 | 951.73 ± 0.83 | 948.58 ± 0.83 | 943.44 ± 0.82 | 938.65 ± 0.82 | –
m1 = 0.1428 | 952.91 ± 0.83 | 949.77 ± 0.83 | 944.62 ± 0.82 | 939.88 ± 0.82 | –
m1 = 0.1583 | 953.83 ± 0.83 | 950.67 ± 0.83 | 945.53 ± 0.82 | 940.81 ± 0.82 | –
m1 = 0.1869 | 955.45 ± 0.84 | 952.33 ± 0.83 | 947.16 ± 0.83 | 942.51 ± 0.82 | –
m1 = 0.2051 | 956.47 ± 0.84 | 953.36 ± 0.83 | 948.17 ± 0.83 | 943.57 ± 0.82 | –

CCCCCCn1cc[n+](C)c1.[Br-] [3-hexyl-1-methyl-1H-imidazolium bromide]
Settings | mass density [kg/m3]
[1], 298.15 K, 101.33 kPa | 1222.1 ± 0.5
